From patent US20140296354A1, “SYNTHESIS OF PEPTOID-BASED SMALL MOLECULAR GELATORS FROM MULTIPLE COMPONENT REACTIONS” (OLD DOMINION UNIVERSITY RESEARCH FOUNDATION, priority 2013, published 2014)
Non-standard residues stand in square brackets, D forms with d. Residues, ends and D or L forms follow the SMILES beside them. *: point of attachment. Nphe = O=C(O)CNCc1ccccc1; Bz = O=C(c1ccccc1)*

Legend:
[1] = Gelation test in solvents at room temperature; format: physicochemical; design: key: I, insoluble; P, precipitating; S, soluble at ~20 mg/mL; G, gel at room temperature; number is minimum gelation concentration; conditions: Table 3
Description: (§1) Gelation tests were performed by adding incremental amounts of compounds to a solvent or solvent system at room temperature and observing the results (i.e., gel formation, solubility of compounds, insolubility of compounds, or formation of a precipitate). […] The term “precipation” means that the compound dissolves upon heating and sonicating, however, it crashes out of solution when the heat is removed.
(§2) After the compounds were synthesized, they were screened for gelation properties. […] For the compounds with new chiral centers, they formed gels in aqueous environment preferentially.

[2] = Gelation test in solvents at room temperature; format: physicochemical; design: key to Gelation test result: I, insoluble; P, precipitating; S, soluble at ~20 mg/mL; G, gel at room temperature; number is minimum gelation concentration; conditions: for Gelation result / preliminary MGC (stable gel) / concentration of slightly unstable or partial gel (UG): Table 3; for Gelation test result: room temperature
Description: as §1, §2

[3] = Gelation test in solvents at room temperature; format: physicochemical; design: key: S, soluble (starting test at 20 mg/mL); I, insoluble; P, precipitate; G, stable gel, the numbers after G are preliminary MGCs in mg/mL; UG, slightly unstable gels or partial gels, concentrations are 20 mg/mL unless otherwise noted; conditions: Table 3
Description: as §1, §2

Compound	Gelation result ([1]; Hexane)	Gelation result ([2]; EtOH)	Gelation result ([3]; DMSO:H2O 1:1)	Gelation result ([3]; DMSO:H2O 1:2)	Gelation result ([3]; EtOH:H2O (1:2))	preliminary MGC (stable gel) ([2]; DMSO:H2O 1:1)	preliminary MGC (stable gel) ([2]; DMSO:H2O 1:2)	Gelation result ([3]; Water)	also measured
CCOC(=O)CNC(=O)CN(Cc1ccccc1)C(=O)c1ccc(C(=O)N(CC(=O)NCC(=O)OCC)Cc2ccccc2)cc1 [Compound 30]	I	S (S, soluble (starting test at 20 mg/mL))	P	P	P				Gelation result ([1]; Water): I
CC(=O)N(CC(=O)NC1CCCCC1)Cc1ccccc1 [Compound 14, N-benzyl-N-(2-(cyclohexylamino)-2-oxoethyl)acetamide]									melting point: 122 to 124 °C; Gelation test result ([2]; DMSO:H2O (1:1)): S (S, soluble at ~20 mg/mL); Gelation test result ([2]; DMSO:H2O (1:2)): P; Gelation test result ([2]; EtOH): S (S, soluble at ~20 mg/mL); Gelation test result ([2]; EtOH:H2O (1:1)): S (S, soluble at ~20 mg/mL); Gelation test result ([2]; EtOH:H2O (1:2)): P; Gelation test result ([2]; H2O): P; Gelation test result ([2]; Hexane): I^(a)
CCOC(=O)CNC(=O)CN(Cc1ccc(OC)cc1)C(=O)CCC(=O)NC1C(OC)OC2COC(c3ccccc3)OC2C1O (stereo not shown) [Compound 34]	I		G	G	G	20.0 mg/mL	10.0 mg/mL	G	preliminary MGC (stable gel) ([2]; EtOH:H2O (1:2)): 20.0 mg/mL; preliminary MGC (stable gel) ([2]; EtOH): 10.0 mg/mL; preliminary MGC (stable gel) ([2]; Water): 10.0 mg/mL; gelation properties (in words) ([2]; screening of Table 3 compounds): able to gelate in water as well as almost all the tested solvents; Gelation result ([3]; EtOH): G
COC1OC2COC(c3ccccc3)OC2C(O)C1N(CC(=O)NC1CCCCC1)C(C)=O (stereo not shown) [Compound 31]	I		G	G		10.0 mg/mL	10.0 mg/mL	P	Gelation result ([2]; EtOH:H2O (1:2)): S (S, soluble (starting test at 20 mg/mL)); preliminary MGC (stable gel) ([2]; EtOH): 10.0 mg/mL; Gelation result ([3]; EtOH): G
CC1(C)OCC(CN(CC(=O)NC2CCCCC2)C(=O)c2ccc(Br)cc2)O1 (stereo not shown) [Compound 27]			G	G	P	20.0 mg/mL	20.0 mg/mL		Gelation result ([2]; Hexane): S (S, soluble (starting test at 20 mg/mL)); Gelation result ([2]; Water): S (S, soluble (starting test at 20 mg/mL)); Gelation result ([3]; EtOH): P
O=C(CN(Cc1ccccc1)C(=O)c1ccccc1)NC1CCCCC1 [Compound 16, N-benzyl-N-(2-(cyclohexylamino)-2-oxoethyl)benzamide]									melting point: 104 to 106 °C; Gelation test result ([2]; DMSO:H2O (1:1)): P; Gelation test result ([2]; DMSO:H2O (1:2)): P; Gelation test result ([2]; EtOH): P; Gelation test result ([2]; EtOH:H2O (1:1)): P; Gelation test result ([2]; EtOH:H2O (1:2)): P; Gelation test result ([2]; H2O): I; Gelation test result ([2]; Hexane): I
COc1ccc(C(C(=O)NC2CCCCC2)N(C(C)=O)[C@H](C)c2ccccc2)cc1 (single isomer, unassigned) [Compound 38a]		S (S, soluble (starting test at 20 mg/mL))		UG				UG	Gelation result ([1]; EtOH:H2O (1:2)): I; concentration of slightly unstable or partial gel (UG) ([2]; DMSO:H2O 1:2): 18000 µg/mL; concentration of slightly unstable or partial gel (UG) ([2]; Water): 17000 µg/mL; Gelation result ([3]; Hexane): P
COC1OC(CO)C(O)C(O)C1N(CC(=O)NC1CCCCC1)C(=O)c1ccc(Br)cc1 (stereo not shown) [Compound 40]		S (S, soluble (starting test at 20 mg/mL))	G	G	P	20.0 mg/mL	20.0 mg/mL		Gelation result ([1]; Water): I; Gelation result ([2]; Hexane): S (S, soluble (starting test at 20 mg/mL))
O=C(CN(C(=O)c1ccccc1)c1ccccc1)NC1CCCCC1 [Compound 39]		S (S, soluble (starting test at 20 mg/mL))	P	P	P			P	Gelation result ([3]; Hexane): P
COc1ccc(CN(CC(=O)NCC(=O)O)C(=O)c2ccc(Br)cc2)cc1 [Compound 42]	I	S (S, soluble (starting test at 20 mg/mL))	P	P	P			P	
CCOC(=O)CNC(=O)CN(C(=O)c1ccc(Br)cc1)C1C(OCC)OC2COC(c3ccccc3)OC2C1O (stereo not shown) [Compound 32]	I	S (S, soluble (starting test at 20 mg/mL))	G	UG	G	20.0 mg/mL		P	concentration of slightly unstable or partial gel (UG) ([2]; DMSO:H2O 1:2): 20000 µg/mL; preliminary MGC (stable gel) ([2]; EtOH:H2O (1:2)): 20.0 mg/mL
COc1ccc(C(C(=O)NC2CCCCC2)N(C(C)=O)[C@H](C)c2ccccc2)cc1 (single isomer, unassigned) [Compound 38b]					P			G	Gelation result ([1]; DMSO:H2O 1:2): I; preliminary MGC (stable gel) ([2]; Water): 21.0 mg/mL
CCOC(=O)CNC(=O)CN(Cc1ccccc1)C(=O)c1ccccc1 [Compound 22, Ethyl 2-(2-(N-benzylbenzamido)acetamido)acetate] (Bz-[Nphe]-Gly-OEt)									Gelation test result ([2]; DMSO:H2O (1:1)): S (S, soluble at ~20 mg/mL); Gelation test result ([2]; DMSO:H2O (1:2)): P; Gelation test result ([2]; EtOH): P; Gelation test result ([2]; EtOH:H2O (1:1)): P; Gelation test result ([2]; EtOH:H2O (1:2)): P; Gelation test result ([2]; H2O): S (S, soluble at ~20 mg/mL); Gelation test result ([2]; Hexane): S (S, soluble at ~20 mg/mL)
COc1ccc(CN(CC(=O)Nc2ccc(Oc3ccc(NC(=O)CN(Cc4ccc(OC)cc4)C(=O)c4ccc(Br)cc4)cc3)cc2)C(=O)c2ccc(Br)cc2)cc1 [Compound 36]	I	S (S, soluble (starting test at 20 mg/mL))	UG	P	P			P	concentration of slightly unstable or partial gel (UG) ([2]; DMSO:H2O 1:1): 20000 µg/mL
COc1ccc(CN(CC(=O)NCS(=O)(=O)c2ccc(C)cc2)C(=O)c2ccc(Br)cc2)cc1 [Compound 35]	I		G	G	G	20.0 mg/mL	20.0 mg/mL		Gelation result ([1]; Water): I; preliminary MGC (stable gel) ([2]; EtOH:H2O (1:2)): 10.0 mg/mL; Gelation result ([3]; EtOH): P
COc1ccc(C(C(=O)NC2CCCCC2)N(Cc2ccccc2)C(C)=O)cc1 (racemic) [Compound 37]	I	S (S, soluble (starting test at 20 mg/mL))		P	G			UG	preliminary MGC (stable gel) ([2]; EtOH:H2O (1:2)): 15.0 mg/mL; concentration of slightly unstable or partial gel (UG) ([2]; Water): 17000 µg/mL
O=C(CN(CC(O)CO)C(=O)c1ccc(Br)cc1)NC1CCCCC1 (stereo not shown) [Compound 41]	I	S (S, soluble (starting test at 20 mg/mL))							Gelation result ([2]; DMSO:H2O 1:1): S (S, soluble (starting test at 20 mg/mL)); Gelation result ([2]; DMSO:H2O 1:2): S (S, soluble (starting test at 20 mg/mL)); Gelation result ([2]; EtOH:H2O (1:2)): S (S, soluble (starting test at 20 mg/mL)); Gelation result ([2]; Water): S (S, soluble (starting test at 20 mg/mL))
O=C(CN(Cc1ccccc1)C(=O)c1ccc(C(=O)N(CC(=O)NC2CCCCC2)Cc2ccccc2)cc1)NC1CCCCC1 [Compound 29]	I		P	G	P		20.0 mg/mL	UG	concentration of slightly unstable or partial gel (UG) ([2]; Water): 20000 µg/mL; Gelation result ([3]; EtOH): UG
CCOC(=O)CNC(=O)CN(CCNC(=O)OC(C)(C)C)C(=O)Cc1ccc2ccccc2c1 [Compound 33]	I	S (S, soluble (starting test at 20 mg/mL))	P	P	P			P	
O=C(O)CNC(=O)CN(Cc1ccccc1)C(=O)c1ccc(C(=O)N(CC(=O)NCC(=O)O)Cc2ccccc2)cc1 [Compound 43]	I	S (S, soluble (starting test at 20 mg/mL))	UG	UG				P	concentration of slightly unstable or partial gel (UG) ([2]; DMSO:H2O 1:1): 20000 µg/mL; concentration of slightly unstable or partial gel (UG) ([2]; DMSO:H2O 1:2): 20000 µg/mL
